Key:
[1] = Quantitative sweetness synergy of monatin in blends with other sweeteners; type: in vivo
[2] = Stability of monatin at pH 3 with increasing temperatures; type: physicochemical
Method: A sample of synthetic monatin was subjected to pH 3 at temperatures of 25° C., 50° C. and 100° C. At room temperature and pH 3, a 14% loss in monatin was observed over a period of 48 hours. This loss was attributed to lactone formation. At 50° C. and pH 3, a 23% loss in monatin was observed over a period of 48 hours. This loss was attributed to lactone formation and the buildup of an unknown compound after about 15.5 minutes. […] The major detectable component was an unknown at 15.5 minutes.

[3] = Sensory stability of monatin and aspartame at pH 2.5, 3.0, 4.0 at 40° C. (sweetness vs sucrose standards, panel n=8); type: physicochemical; conditions: for Rate constant (k; day^−1) of sweetness loss: pseudo-first order assumed
Method: The sensory stability of monatin solutions prepared at pH 2.5, 3.0 and 4.0 and stored at 40° C. was monitored for 100 days. Loss of sweetness from these solutions was compared with the losses of sweetness from aspartame solutions prepared and stored under identical conditions.
The sensory stability of monatin (8% SEV, ˜55 ppm, synthetic blend containing approximately 96% of the 2R,4R/2S, 4S enantiometric pair and 4% of the 2R,4S/2S,4R enantiometric pair) in phosphate/citrate buffers having a pH of 2.5, 3.0, and 4.0 was examined after storage at 40° C. The stability of monatin was compared to that of aspartame (400 ppm) in the same buffers. Three sucrose reference solutions were prepared in the same phosphate/citrate buffers as the monatin and aspartame solutions. All prepared solutions were stored in the dark.
• pH2.5 Phosphoric acid (75% solution) 0.127% (w/v) • Tri-sodium citrate monohydrate 0.005% (w/v) • pH3.0 Phosphoric acid (75% solution) 0.092% (w/v) • Tri-sodium citrate monohydrate 0.031% (w/v) • pH4.0 Phosphoric acid (75% solution) 0.071% (w/v) • Tri-sodium citrate monohydrate 0.047% (w/v)
The sweetness of each sweetener relative to sucrose was assessed in duplicate by a small panel (n=8) of trained sensory evaluators experienced in the sweetness estimation procedure. All samples (in the same buffers) were served in duplicate at a temperature of 22° C.±1° C. Monatin (test) solutions, coded with 3 digit random number codes were presented individually to panelists, in random order. Sucrose reference standards, ranging from 4.0-10.0% (w/v) sucrose, increasing in steps of 0.5% (w/v) sucrose were also provided. Panelists were asked to estimate sweetness by comparing the sweetness of the test solution to the sucrose standards. This was carried out by taking 3 sips of the test solution, followed by a sip of water, followed by 3 sips of sucrose standard followed by a sip of water, etc. Panelists were encouraged to estimate the sweetness to one decimal place, e.g., 6.8, 8.5. A five minute rest period was imposed between evaluating the test solutions. Panelists were also asked to rinse well and eat a cracker to reduce any potential carry over effects.
If a pseudo-first order breakdown reaction is assumed, a plot of logn percentage retention versus time (logn% RTN v. t) allows estimation of the half-life (t½) and rate constant (k) of sweetness loss under any given set of conditions. In so doing, the kinetics of monatin and aspartame sweetness loss may be summarized as follows in Table 13.

[4] = Stability of monatin at high temperature (80° C.) and neutral pH, LC-MS; type: physicochemical; conditions: pH 7, 75 ppm, after 7-35 days
Method: A 100 milliliter solution of 75 ppm monatin at pH 7 was used as a stock solution. The synthetic monatin sample contained approximately 96% of the 2R,4R/2S,4S enantiomeric pair and 4% of the 2R,4S/2S,4R enantiomeric pair. Samples were incubated at 80° C. and pH 7 for the duration of the experiment and samples were withdrawn at 0, 1, 2, 3, 4 hours and 1, 2, 4, 7, 14, 21 and 35 days. All experimental conditions were run in duplicate.
Separation and Quantification Using LC-MS using Reverse Phase Chromatography A response curve was established for both detected diastereomer peaks of the synthetic monatin. A range of 5-150 ppm was bracketed with the synthetic monatin standard dissolved in DI water. Separation of the two diastereomer peaks was accomplished using a 3.9×1 50 mm Novapak C18 (Waters Corporation) HPLC column. Ultraviolet-Visible (UV) and Mass Spectrometer (MS) detectors were used in series for detection and quantitation. Monatin and its lactone peak each have a UVmax at 279 nm that aided in precise detection. Quantification was done by acquiring Selected Ion Monitoring (SIM) scan of 293.3 m/z and 275.3 m/z in positive-ion electrospray mode.

[5] = pH 2.5, 40° C., day 1, monatin ~55 ppm
[6] = pH 2.5, 40° C., day 2, monatin ~55 ppm
[7] = pH 2.5, 40° C., day 3, monatin ~55 ppm
[8] = pH 2.5, 40° C., day 4, monatin ~55 ppm
[9] = pH 2.5, 40° C., day 7, monatin ~55 ppm
[10] = pH 2.5, 40° C., day 8, monatin ~55 ppm
[11] = pH 2.5, 40° C., day 9, monatin ~55 ppm
[12] = pH 2.5, 40° C., day 11, monatin ~55 ppm
[13] = pH 2.5, 40° C., day 50, monatin ~55 ppm
[14] = pH 2.5, 40° C., day 100, monatin ~55 ppm
[15] = pH 3.0, 40° C., day 1, monatin ~55 ppm
[16] = pH 3.0, 40° C., day 2, monatin ~55 ppm
[17] = pH 3.0, 40° C., day 3, monatin ~55 ppm
[18] = pH 3.0, 40° C., day 4, monatin ~55 ppm
[19] = pH 3.0, 40° C., day 7, monatin ~55 ppm
[20] = pH 3.0, 40° C., day 8, monatin ~55 ppm
[21] = pH 3.0, 40° C., day 9, monatin ~55 ppm
[22] = pH 3.0, 40° C., day 11, monatin ~55 ppm
[23] = pH 3.0, 40° C., day 50, monatin ~55 ppm
[24] = pH 3.0, 40° C., day 100, monatin ~55 ppm
[25] = pH 4.0, 40° C., day 3, monatin ~55 ppm
[26] = pH 4.0, 40° C., day 8, monatin ~55 ppm
[27] = pH 4.0, 40° C., day 11, monatin ~55 ppm
[28] = pH 4.0, 40° C., day 17, monatin ~55 ppm
[29] = pH 4.0, 40° C., day 24, monatin ~55 ppm
[30] = pH 4.0, 40° C., day 50, monatin ~55 ppm
[31] = pH 4.0, 40° C., day 100, monatin ~55 ppm

- loss in monatin ([2]; 50° C., pH 3, 48 hours): 23%
- loss in monatin ([2]; 100° C., pH 3, 24 hours): nearly all monatin was lost
- loss in monatin ([2]; room temperature (25° C.), pH 3, 48 hours): 14%
- Retention of Monatin Sweetness (%) [3, 5]: 93.3%
- Retention of Monatin Sweetness (%) [3, 6]: 91.2%
- Retention of Monatin Sweetness (%) [3, 7]: 88.4%
- Retention of Monatin Sweetness (%) [3, 8]: 85.2%
- Retention of Monatin Sweetness (%) [3, 9]: 82.7%
- Retention of Monatin Sweetness (%) [3, 10]: 81.4%
- Retention of Monatin Sweetness (%) [3, 11]: 80.1%
- Retention of Monatin Sweetness (%) [3, 12]: 78.6%
- Retention of Monatin Sweetness (%) [3, 13]: 62.7%
- Retention of Monatin Sweetness (%) [3, 14]: 28.6%
- Rate constant (k; day^−1) of sweetness loss ([3]; pH 2.5, 40° C.): 0.011 day⁻¹
- Sweetness Retained (%) ([3]; pH 2.5, 100 days storage at 40° C.): 29%
- Retention of Monatin Sweetness (%) [3, 15]: 99.6%
- Retention of Monatin Sweetness (%) [3, 16]: 93.2%
- Retention of Monatin Sweetness (%) [3, 17]: 91.4%
- Retention of Monatin Sweetness (%) [3, 18]: 91.6%
- Retention of Monatin Sweetness (%) [3, 19]: 85.3%
- Retention of Monatin Sweetness (%) [3, 20]: 83.8%
- Retention of Monatin Sweetness (%) [3, 21]: 83.1%
- Retention of Monatin Sweetness (%) [3, 22]: 83.1%
- Retention of Monatin Sweetness (%) [3, 23]: 72.3%
- Retention of Monatin Sweetness (%) [3, 24]: 57.9%
- Rate constant (k; day^−1) of sweetness loss ([3]; pH 3.0, 40° C.): 0.006 day⁻¹
- Sweetness Retained (%) ([3]; pH 3.0, 100 days storage at 40° C.): 58%
- Retention of Monatin Sweetness (%) [3, 25]: 95.7%
- Retention of Monatin Sweetness (%) [3, 26]: 86.8%
- Retention of Monatin Sweetness (%) [3, 27]: 85.9%
- Retention of Monatin Sweetness (%) [3, 28]: 82.4%
- Retention of Monatin Sweetness (%) [3, 29]: 84.5%
- Retention of Monatin Sweetness (%) [3, 30]: 82.9%
- Retention of Monatin Sweetness (%) [3, 31]: 78.4%
- Rate constant (k; day^−1) of sweetness loss ([3]; pH 4.0, 40° C.): 0.003 day⁻¹
- Sweetness Retained (%) ([3]; pH 4.0, 100 days storage at 40° C.): 78%
- degree of degradation of monatin [4]: insignificant
SMILES: NC(CC(O)(Cc1c[nH]c2ccccc12)C(=O)O)C(=O)O (stereo not drawn) [Monatin, 2-hydroxy-2-(indol-3-ylmethyl)-4-aminoglutaric acid]
- quantitative synergy with cyclamates ([1]; blend with cyclamates): quantitatively synergistic
- quantitative synergy with other sweeteners ([1]; with aspartame, saccharin, acesulfame-K, sucralose, or carbohydrate sweeteners): no significant quantitative synergy
- SEV Monatin (% sucrose) ([3]; pH 2.5, 40° C., day 0, monatin ~55 ppm): 7.35 % sucrose
- SEV Monatin (% sucrose) [3, 5]: 6.86 % sucrose
- SEV Monatin (% sucrose) [3, 6]: 6.70 % sucrose
- SEV Monatin (% sucrose) [3, 7]: 6.50 % sucrose
- SEV Monatin (% sucrose) [3, 8]: 6.26 % sucrose
- SEV Monatin (% sucrose) [3, 9]: 6.08 % sucrose
- SEV Monatin (% sucrose) [3, 10]: 5.98 % sucrose
- SEV Monatin (% sucrose) [3, 11]: 5.89 % sucrose
- SEV Monatin (% sucrose) [3, 12]: 5.78 % sucrose
- SEV Monatin (% sucrose) [3, 13]: 4.61 % sucrose
- SEV Monatin (% sucrose) [3, 14]: 2.10 % sucrose
- SEV Monatin (% sucrose) ([3]; pH 3.0, 40° C., day 0, monatin ~55 ppm): 7.08 % sucrose
- SEV Monatin (% sucrose) [3, 15]: 7.05 % sucrose
- SEV Monatin (% sucrose) [3, 16]: 6.60 % sucrose
- SEV Monatin (% sucrose) [3, 17]: 6.47 % sucrose
- SEV Monatin (% sucrose) [3, 18]: 6.49 % sucrose
- SEV Monatin (% sucrose) [3, 19]: 6.04 % sucrose
- SEV Monatin (% sucrose) [3, 20]: 5.93 % sucrose
- SEV Monatin (% sucrose) [3, 21]: 5.88 % sucrose
- SEV Monatin (% sucrose) [3, 22]: 5.88 % sucrose
- SEV Monatin (% sucrose) [3, 23]: 5.12 % sucrose
- SEV Monatin (% sucrose) [3, 24]: 4.10 % sucrose
- SEV Monatin (% sucrose) ([3]; pH 4.0, 40° C., day 0, monatin ~55 ppm): 7.40 % sucrose
- SEV Monatin (% sucrose) [3, 25]: 7.08 % sucrose
- SEV Monatin (% sucrose) [3, 26]: 6.42 % sucrose
- SEV Monatin (% sucrose) [3, 27]: 6.36 % sucrose
- SEV Monatin (% sucrose) [3, 28]: 6.10 % sucrose
- SEV Monatin (% sucrose) [3, 29]: 6.25 % sucrose
- SEV Monatin (% sucrose) [3, 30]: 6.14 % sucrose
- SEV Monatin (% sucrose) [3, 31]: 5.80 % sucrose

Reference: patent publication US20050112260A1, “Monatin tabletop sweetener compositions and methods of making same” (Cargill, Inc., priority 2003, published 2005)
